Like-named read-outs stand apart in the source and are kept apart here.
Tests used:
[1] = system: root-knot nematode (Meloidogyne incognita); assay: Initial Root-Knot Nematicidal Activity; type: in vivo; conditions: 336 h, read-out: Percent Control; for pest or weed control at 0.313 ppm: Table 2, Application Rate 0.313 ppm; for pest or weed control at 1.25 ppm: Table 2, Application Rate 1.25 ppm; for pest or weed control at 0.078 ppm: Table 2, Application Rate 0.078 ppm; for pest or weed control at 0.156 ppm: Table 2, Application Rate 0.156 ppm; for pest or weed control at 0.312 ppm: Table 2, Application Rate 0.312 ppm
Experimental: (§1) Compounds of this invention were tested as follows for nematicidal and anthelmintic activity as dust formulations (initial and residual activity) and as acetone/water formulations (systemic activity). The formulations are described above.
The activity against root-knot nematode (Meloidogyne incognita) was determined by incorporating the compound of the invention in nematode infested soil at rates in the range of 10 ppm to 0.078 ppm of compound. Several tomato or cucumber seedlings were planted in the nematode infested soil. Two weeks after planting the test pots were evaluated to ascertain the degree of galling (swelling) on the roots of the plants, indicating the control provided by the test chemical.
The results expressed as precent control (determined by knot index) are set forth as averages in Table 2 (appended). Knot index is a numerical designation assigned at evaluation, having the following meanings:
Percent control is related to knot index as follows:
When the Knot Index is between 0 and 1 it is further subdivided as follows to indicate how close the percent control is to 75% or 100%: […]

root-knot nematode [2] = assay: Systemic Activity (basipetal, foliar spray) against root-knot nematode; type: in vivo, Meloidogyne incognita; conditions: 336 h, read-out: Percent Control; for pest or weed control at 2000 ppm: Table 8, rate 2000 ppm
Experimental: as §1
Compounds of the invention were tested for basipetal systemic activity against the root-knot nematode. In this test, tomato plants are grown in 10.2 cm diameter fiber pots containing steam-pasteurized soil mix (50%, soil, 50% sand) until 4-6 true leaves appear. Three of the pots are then placed on a turntable in a spray hood and the plants sprayed with 50 ml of water/acetone solution containing the test compound. The soil surface is covered during the spraying to prevent spraying of the soil. After treatment, the potted plants are placed in a lighted drying chamber. The plants are then grown in a growth chamber at 25° C. for three days and inoculated with a standard nematode culture by incorporating the inoculum into the top cm of soil in the pots. The plants are returned to the growth chamber for about two weeks at which time the pots are allowed to dry until the plants begin to wilt. The roots are shaken free of soil and the degree of galling (swelling) noted as compared to galling of untreated control plants. The results are expressed as Knot Index and Percent Control as defined in the initial root-knot nematode activity tests reported above in Table 2.

root-knot nematode [3] = assay: Residual Root-Knot Nematicidal Activity; type: in vivo, Meloidogyne incognita; conditions: read-out: Percent Control
Experimental: as §1
The ability of nematicidal compounds of the invention to control root-knot nematode infestations in soil over a period of time after treatment was evaluated. Dust formulations of test compound (5%) were incorporated into soil samples at test compound rates of 5 and 10 ppm. Subsequently, the treated soil samples were inoculated with nematode inoculum at weekly intervals, and Knot Index and Percent Control determined on seedlings planted in the soil samples. Specifically, soil treated with test compound was placed in 7.6 cm diameter fiber pots and stored in a greenhouse. At one, two and four weeks post-treatment, the appropriate number of pots was infested with root-knot nematode eggs and larvae. A cucumber or tomato seedling was planted in each pot and evaluated approximately two weeks after the soil infestation to obtain the test results reported in Tables 3 and 3a appended.

Caenorhabditis elegans = assay: C. Elegans Nematode Screening Test and Evaluation (in-vitro); conditions: Caenorhabditis elegans; for inhibition at 5 ppm / inhibition at 1.25 ppm / inhibition at 2.5 ppm: read-out: Percent Inhibition of Reproduction; for mortality at 5 ppm / mortality at 1.25 ppm / mortality at 2.5 ppm: read-out: Percent Mortality
Experimental: This in-vitro test using the free-living nematode Caenorhabditis elegans, is a modification of the assay developed by Simpkin and Coles, J. Chem. Tech. […] One milliliter of a test medium consisting of 5 mg ampicillin, 10,000 units of mycostatin and 10 ml of a dense suspension of Escherichia coli per 100 ml of a buffer solution, was pipetted into each well of a 24-well microtiter plate. The candidate nematicide, suspended at the appropriate concentration in dimethylsulfoxide, was added to the wells in […] volumes. Each rate of application was replicated two to three times. After thorough mixing of the contents of each well, 50 to 100 μl of a nematode suspension in a buffer was added so that each well received 10-15 nematodes. After the nematodes were added, the microtiter plates were incubated at 20° C. for 5-6 days.
The effect of the candidate nematicide on the survival and the reproduction of C. elegans was then evaluated by comparison of the level of population developed in the treated wells with that in untreated wells. Specific effects on population development, such as reduced egg hatch or molting disruption, were noted if they were evident.

lesion nematode = assay: Lesion Nematode Test; type: in vivo; conditions: Table 5; rate 2.5 ppm; read-out: Percent Control
Experimental: as §1
The procedure was substantially the same as in the stunt nematode test described above except that pea seedlings were used. The results (Table 5 appended) show good control with many of the compounds at the application rates tested as compared with untreated samples (no control). "Percent Control" is defined as follows: [formula]

stunt nematode = assay: Stunt Nematode Test; type: in vivo
Experimental: as §1
The procedure was substantially the same as in the […] seedling, with subsequent inoculation of the soil with combined larvae and adult stunt nematodes. The samples were evaulated approximately four weeks after infestation. […] "Percent control" means the difference between average population counts between untreated and treated samples, divided by average population count of untreated sample, multiplied by 100.

root-knot nematode [4] = assay: Soil Mobility against root-knot nematode; type: in vivo, Meloidogyne incognita; conditions: 336 h, Table 7a, 5% dust, 5 ppm, read-out: Percent Control
Experimental: as §1
The ability of nematicidal compounds of the invention to move through nematode-infested soil […] infested soil, and subsequently eluting the soil with 15 cm of water (equivalent to 15 cm of rainfall) into a series of two or more pots of untreated, but nematode-infested, soil. Specifically, the pots were 8 cm diameter plastic pots containing a 10 cm^3 layer of sand over a coarse grade filter paper disc. Sufficient soil was placed over the sand to fill the pots, and a second filter paper disc was placed over the soil. Each test compound-treated pot was nested over a series of two or more pots containing untreated, but nematode-infested soil, also containing sand filter paper discs as described for the treated soil pots. Fifteen cm of water was slowly dripped into the top pots and the pots were allowed to drain for 16-18 hours to remove excess water. The top filter of each pot was then removed and the pots were planted with a cucumber or tomato seedling. […] "Knot Index" and "Percent Control" are as defined in the initial root-knot nematode tests above.

[5] = Table 2, Application Rate 0.625 ppm
[6] = Table 2, Application Rate 2.5 ppm
[7] = 672 h, Table 4a; rate 5 ppm; read-out: Percent Control

Compound: FC(F)=C(F)CCSc1nnc(-c2ccccc2)o1 [Compound 16, 2-phenyl-5-(3,4,4-trifluoro-3-butenylthio)-1,3,4-oxadiazole]
- pest or weed control at 0.313 ppm [1]: 0%
- pest or weed control at 0.625 ppm [1, 5]: 25%
- pest or weed control at 1.25 ppm [1]: 44%
- pest or weed control at 2.5 ppm [1]: 95%
- pest or weed control at 2000 ppm (root-knot nematode [2]; foliar): 67%

Compound: FC(F)=C(F)CCSc1nnc(SCCC(F)=C(F)F)s1 [Compound 13, 2,5-di(3,4,4-trifluoro-3-butenylthio)-1,3,4-thiadiazole]
- pest or weed control at 5 ppm (root-knot nematode [3]; 168 h, Table 3, inoculation 1 week after treatment): 98%
- pest or weed control at 10 ppm (root-knot nematode [3]; 168 h, Table 3, 10 ppm, inoculation 1 week after treatment): 99%
- pest or weed control at 5 ppm (root-knot nematode [3]; 336 h, Table 3, inoculation 2 weeks after treatment): 98%
- pest or weed control at 10 ppm (root-knot nematode [3]; 336 h, Table 3, 10 ppm, inoculation 2 weeks after treatment): 99%
- pest or weed control at 5 ppm (root-knot nematode [3]; 672 h, Table 3, inoculation 4 weeks after treatment): 75%
- pest or weed control at 10 ppm (root-knot nematode [3]; 672 h): 95%
- pest or weed control at 0.078 ppm [1]: 0%
- pest or weed control at 0.156 ppm [1]: 13%
- pest or weed control at 0.313 ppm [1]: 71%
- pest or weed control at 0.625 ppm [1, 5]: 96%
- pest or weed control at 1.25 ppm [1]: 99%
- pest or weed control at 2.5 ppm [1, 6]: 99%
- pest or weed control at 0.625 ppm [1]: 95%
- pest or weed control at 2000 ppm (root-knot nematode [2]; foliar): 79%

Compound: CC(C)(C)CC(C)(C)Sc1nnc(SCCC(F)=C(F)F)s1 [Compound 12, 2-(1,1,3,3-tetramethylbutylthio)-5-(3,4,4-trifluoro-3-butenylthio)-1,3,4-thiadiazole]
- pest or weed control at 0.313 ppm [1]: 8%
- pest or weed control at 0.625 ppm [1, 5]: 69%
- pest or weed control at 1.25 ppm [1]: 79%
- pest or weed control at 2.5 ppm [1, 6]: 100%
- pest or weed control at 2000 ppm (root-knot nematode [2]): 73%
- pest or weed control at 2000 ppm (root-knot nematode [2]; foliar): 99%

Compound: FC(F)=C(F)CCSc1nnc(-c2ccc(Cl)cc2)o1 [Compound 17, 2-(4-chlorophenyl)-5-(3,4,4-trifluoro-3-butenylthio)-1,3,4-oxadiazole]
- pest or weed control at 2.5 ppm [1, 6]: 100%
- pest or weed control at 5 ppm ([1]; Table 2, Application Rate 5.0 ppm): 100%
- pest or weed control at 10 ppm ([1]; Table 2, Application Rate 10.0 ppm): 100%
- pest or weed control at 2000 ppm (root-knot nematode [2]; foliar): 42%

Compound: FC(F)=C(F)CCSc1nnc(SCc2ccc(Br)cc2)s1 [Compound 33, 2-(4-bromophenylmethylthio)-5-(3,4,4-trifluoro-3-butenylthio)-1,3,4-thiadiazole]
- pest or weed control at 0.312 ppm [1]: 38%
- pest or weed control at 0.625 ppm [1, 5]: 70%
- pest or weed control at 1.25 ppm [1]: 84%
- pest or weed control at 2.5 ppm [1, 6]: 97%
- inhibition at 5 ppm (Caenorhabditis elegans; Table 9 screen): 100%
- mortality at 5 ppm (Caenorhabditis elegans; Table 9 screen): 100%
- mortality at 5 ppm (Caenorhabditis elegans; Table 10 evaluation): 100%
- inhibition at 1.25 ppm (Caenorhabditis elegans; Table 10 evaluation): 100%
- mortality at 1.25 ppm (Caenorhabditis elegans; Table 10 evaluation): 100%
- inhibition at 2.5 ppm (Caenorhabditis elegans; Table 10 evaluation): 100%
- mortality at 2.5 ppm (Caenorhabditis elegans; Table 10 evaluation): 100%
- pest or weed control at 2.5 ppm (lesion nematode): 46%
- pest or weed control at 5 ppm (stunt nematode; [7]): 52%
- pest or weed control at 2500 ppm (root-knot nematode [2]; Table 8, rate 2500 ppm): 17%

Compound: FC(F)=C(F)CCSc1nnc(SCC2CC2)s1 [Compound 15, 2-cyclopropylmethylthio-5-(3,4,4-trifluoro-3-butenylthio)-1,3,4-thiadiazole]
- pest or weed control at 0.313 ppm [1]: 6%
- pest or weed control at 0.625 ppm [1, 5]: 31%
- pest or weed control at 1.25 ppm [1]: 97%
- pest or weed control at 2.5 ppm [1, 6]: 100%
- pest or weed control at 2000 ppm (root-knot nematode [2]; foliar): 83%

Compound: FC(F)=C(F)CCSc1nnc(Cc2ccc(Cl)cc2)o1 [Compound 43, 2-(4-chlorophenylmethyl)-5-(3,4,4-trifluoro-3-butenylthio)-1,3,4-oxadiazole]
- pest or weed control at 5 ppm (root-knot nematode [4]; BOTTOM container): 81%
- pest or weed control at 5 ppm (root-knot nematode [4]; MIDDLE container): 97%
- pest or weed control at 5 ppm (root-knot nematode [4]; TOP container): 99%
- pest or weed control at 5 ppm (root-knot nematode [3]; 168 h, Table 3a, 5% dust, inoculation 1 week post-treatment): 100%
- pest or weed control at 5 ppm (root-knot nematode [3]; 336 h, Table 3a, 5% dust, inoculation 2 weeks post-treatment): 100%
- pest or weed control at 5 ppm (root-knot nematode [3]; 672 h, Table 3a, 5% dust, inoculation 4 weeks post-treatment): 100%
- pest or weed control at 0.078 ppm [1]: 13%
- pest or weed control at 0.156 ppm [1]: 38%
- pest or weed control at 0.312 ppm [1]: 78%
- pest or weed control at 1.25 ppm [1]: 56%
- pest or weed control at 2.5 ppm [1, 6]: 97%
- pest or weed control at 0.5 ppm ([1]; Table 2, Application Rate .5 ppm): 99%
- inhibition at 5 ppm (Caenorhabditis elegans; Table 9 screen): 100%
- mortality at 5 ppm (Caenorhabditis elegans; Table 9 screen): 25%
- mortality at 5 ppm (Caenorhabditis elegans; Table 10 evaluation): 83%
- inhibition at 1.25 ppm (Caenorhabditis elegans; Table 10 evaluation): 42%
- mortality at 1.25 ppm (Caenorhabditis elegans; Table 10 evaluation): 0%
- inhibition at 2.5 ppm (Caenorhabditis elegans; Table 10 evaluation): 100%
- mortality at 2.5 ppm (Caenorhabditis elegans; Table 10 evaluation): 67%
- pest or weed control at 2.5 ppm (lesion nematode): 93%
- pest or weed control at 5 ppm (stunt nematode; [7]): 81%
- pest or weed control at 5 ppm (stunt nematode; 672 h; Table 4a; rate 5 ppm; read-out: Percent Control): 62%

From US4952580A, “Pesticidal polyhaloalkene derivatives” (priority 1988, dated 1990)
